Measurements as given in patent US20030171386A1, “Small molecules for the treatment of abnormal cell growth” (Pfizer Inc., priority 2001, published 2003).

Key:
[1] = target: T1, chimeric EGFR/erbB2 kinase (Homo sapiens, UniProt P04626); assay: erbB2 receptor autophosphorylation, in vitro cell assay in transfected 3T3 cells; format: cell-based; settings: intact 3T3 cells transfected with chimeric EGFR/erbB2 kinase; EGF-stimulated phosphotyrosine; read-out: Potency (IC50) for the erbB2 receptor
T1 construct: EGFR extracellular/erbB2 intracellular; expressed in transfected cells; host or cells: 3T3 cells; the other entry of the earlier key: EGFR (P00533, Epidermal growth factor receptor)
T1 sequence (P04626 720-1255 limits assumed, change not shown): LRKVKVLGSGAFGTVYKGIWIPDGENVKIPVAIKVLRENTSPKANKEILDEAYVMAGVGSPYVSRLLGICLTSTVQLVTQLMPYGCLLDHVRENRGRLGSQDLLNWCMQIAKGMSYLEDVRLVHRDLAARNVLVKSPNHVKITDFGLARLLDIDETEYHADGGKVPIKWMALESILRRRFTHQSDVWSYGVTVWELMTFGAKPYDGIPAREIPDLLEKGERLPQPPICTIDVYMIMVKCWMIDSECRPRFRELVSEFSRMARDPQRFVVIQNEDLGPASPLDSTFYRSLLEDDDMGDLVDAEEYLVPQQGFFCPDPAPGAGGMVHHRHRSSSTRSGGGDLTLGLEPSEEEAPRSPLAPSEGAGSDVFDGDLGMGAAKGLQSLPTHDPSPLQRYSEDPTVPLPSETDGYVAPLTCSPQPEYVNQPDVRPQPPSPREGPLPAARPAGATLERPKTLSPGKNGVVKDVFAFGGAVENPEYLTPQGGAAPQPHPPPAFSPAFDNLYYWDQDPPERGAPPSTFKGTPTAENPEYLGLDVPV
Procedure: The in vitro activity of small molecule compounds as erbB kinase inhibitors in intact cells may be determined by the following procedure. Cells, for example 3T3 cells transfected with human EGFR (Cohen et al. J. Virology 67:5303, 1993) or with chimeric EGFR/erbB2 kinase (EGFR extracellular/erbB2 intracellular, Fazioli et al. Mol. Cell. Biol. 11: 2040, 1991) are plated in 96-well plates at 12,000 cells per well in 100 μl medium (Dulbecco's […] (DMEM) with 5% fetal calf serum, 1% pen/streptomycin, 1% L-glutamine) and incubated at 37° C., 5% CO2 Test compounds are solubilized in DMSO at a concentration of 10 mM, and tested at final concentrations of 0, 0.3 μM, 1 μM, […], 0.1 μM and 10 μM in the medium. The cells are incubated at 37° C. for 2 h. EGF (40 ng/ml final) is added to each well and cells incubate at room temperature for 15 min followed by aspiration of medium, then 100 μl/well cold fixative (50% ethanol/50% acetone containing 200 micromolar sodium orthovanadate) is added. The plate is incubated for 30 min at room temperature followed by washing with wash buffer (0.5% Tween 20 in phosphate buffered saline). Blocking buffer (3% bovine serum albumin, 0.05% Tween 20, 200 μM sodium orthovanadate in phosphate buffered saline, 100 μl/well) is added followed by incubation for 2 hours at room temperature followed by two washes with wash buffer. PY54 monoclonal anti-phosphotyrosine antibody directly conjugated to horseradish peroxidase (50 μl/well, 1 μg/ml in blocking buffer) or blocked conjugate (1 μg/ml with 1 mM phosphotyrosine in blocking buffer, to check specificity) is added and the plates incubated for 2 hours at room temperature. The plate wells are then washed 4 times with wash buffer. The colorimetric signal is developed by addition of TMB Microwell Peroxidase Substrate (Kirkegaard and Perry, Gaithersburg, Md.), 50 μl per well, and stopped by the addition of 0.09 M sulfuric acid, 50 μl per well. Absorbance at 450 nm represents phosphotyrosine content of proteins. The increase in signal in EGF-treated cells over control (non-EGF treated) represents the activity of the EGFR or EGFR/chimera respectively. The potency of an inhibitor is determined by measurement of the concentration of compound needed to inhibit the increase in phosphotyrosine by 50% (IC50) in each cell line. The selectivity of the compounds for erbB2 vs. EGFR is determined by comparison of the IC50 for the EGFR transfectant vs. that for the erbB2/EGFR chimera transfectant. Thus, for example, a compound with an IC50 of 100 nM for the EGFR transfectant and 10 nM for the erbB2/EGFR chimera transfectant is considered 10-fold selective for erbB2 kinase.
(§1) The IC50 values for the inhibition of erbB1 receptor autophosphorylation and erbB2 receptor autophophorylation were determined using the in vitro cell assays described above.

human EGFR = target: T2, human EGFR (Homo sapiens, UniProt P00533); assay: erbB1 receptor autophosphorylation, in vitro cell assay in transfected 3T3 cells, used for the erbB2 versus erbB1 selectivity ratio; format: cell-based; settings: comparison of IC50 for EGFR transfectant vs. erbB2/EGFR chimera transfectant
T2 construct: expressed in transfected cells; host or cells: 3T3 cells
T2 sequence (P00533 25-1210): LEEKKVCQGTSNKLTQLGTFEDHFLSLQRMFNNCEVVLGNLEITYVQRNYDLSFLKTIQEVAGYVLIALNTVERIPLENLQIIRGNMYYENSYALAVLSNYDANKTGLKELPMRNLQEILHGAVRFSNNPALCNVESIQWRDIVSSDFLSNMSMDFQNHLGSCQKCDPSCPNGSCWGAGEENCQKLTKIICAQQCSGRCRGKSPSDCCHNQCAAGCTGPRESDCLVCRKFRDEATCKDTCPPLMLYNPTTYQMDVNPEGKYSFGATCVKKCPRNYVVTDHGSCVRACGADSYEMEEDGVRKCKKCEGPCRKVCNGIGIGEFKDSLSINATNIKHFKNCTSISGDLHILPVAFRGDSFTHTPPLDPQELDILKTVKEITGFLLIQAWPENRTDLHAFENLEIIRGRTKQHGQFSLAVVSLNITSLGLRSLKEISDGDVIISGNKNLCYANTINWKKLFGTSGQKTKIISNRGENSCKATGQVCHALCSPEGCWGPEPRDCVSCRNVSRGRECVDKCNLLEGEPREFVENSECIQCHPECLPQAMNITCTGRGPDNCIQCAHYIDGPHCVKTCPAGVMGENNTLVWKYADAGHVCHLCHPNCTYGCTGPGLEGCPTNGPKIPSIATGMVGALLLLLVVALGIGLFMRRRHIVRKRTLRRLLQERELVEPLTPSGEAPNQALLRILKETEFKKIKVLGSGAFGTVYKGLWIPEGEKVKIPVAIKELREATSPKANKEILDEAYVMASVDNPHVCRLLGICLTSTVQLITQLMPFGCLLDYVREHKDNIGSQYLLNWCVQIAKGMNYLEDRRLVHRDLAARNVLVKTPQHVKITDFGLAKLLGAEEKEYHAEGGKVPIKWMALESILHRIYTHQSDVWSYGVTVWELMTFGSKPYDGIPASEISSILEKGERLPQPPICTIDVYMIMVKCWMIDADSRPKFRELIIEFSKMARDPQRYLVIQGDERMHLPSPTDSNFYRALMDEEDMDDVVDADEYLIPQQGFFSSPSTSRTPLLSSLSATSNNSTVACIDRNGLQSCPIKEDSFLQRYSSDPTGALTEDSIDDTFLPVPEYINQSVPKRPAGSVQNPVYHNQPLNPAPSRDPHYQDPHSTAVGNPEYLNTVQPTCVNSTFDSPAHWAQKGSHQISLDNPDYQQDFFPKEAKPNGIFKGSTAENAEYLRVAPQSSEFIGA
Procedure: The in vitro activity of small molecule compounds as erbB kinase inhibitors in intact cells may be determined by the following procedure. […] The cells are incubated at 37° C. for 2 h. EGF (40 ng/ml final) is added to each well and cells incubate at room temperature for 15 min followed by aspiration of medium, then 100 μl/well cold fixative (50% ethanol/50% acetone containing 200 micromolar sodium orthovanadate) is added. The plate is incubated for 30 min at room temperature followed by washing with wash buffer (0.5% Tween 20 in phosphate buffered saline). Blocking buffer (3% bovine serum albumin, 0.05% Tween 20, 200 μM sodium orthovanadate in phosphate buffered saline, 100 μl/well) is added followed by incubation for 2 hours at room temperature followed by two washes with wash buffer. PY54 monoclonal anti-phosphotyrosine antibody directly conjugated to horseradish peroxidase (50 μl/well, 1 μg/ml in blocking buffer) or blocked conjugate (1 μg/ml with 1 mM phosphotyrosine in blocking buffer, to check specificity) is added and the plates incubated for 2 hours at room temperature. The plate wells are then washed 4 times with wash buffer. The colorimetric signal is developed by addition of TMB Microwell Peroxidase Substrate (Kirkegaard and Perry, Gaithersburg, Md.), 50 μl per well, and stopped by the addition of 0.09 M sulfuric acid, 50 μl per well. […] The increase in signal in EGF-treated cells over control (non-EGF treated) represents the activity of the EGFR or EGFR/chimera respectively. […] The selectivity of the compounds for erbB2 vs. EGFR is determined by comparison of the IC50 for the EGFR transfectant vs. that for the erbB2/EGFR chimera transfectant.
as §1

[2] = clinical trials, patients; cited from earlier work
[3] = test system: another carcinoma, which does not express the EGF receptor; settings: carcinoma not expressing the EGF receptor; cited from earlier work
[4] = test system: transplanted human mammary carcinoma, which expresses epidermal growth factor receptor tyrosine kinase (EGFR); settings: EGFR-expressing human mammary carcinoma in athymic nude mice; cited from earlier work

Row | IC50 [1] | erbB2/erbB1 ratio (selectivity) (human EGFR) | Compound | dermal toxicity (rash) [2] | tumor growth [3] | tumor growth [4]
1 | 21 to 50 nM | 121 | CCNC(=O)NCC#Cc1ccc2ncnc(Nc3ccc(Oc4cccnc4)c(Cl)c3)c2c1 [Example 12, 1-(3-{4-[3-Chloro-4-(pyridin-3-yloxy)-phenylamino]-quinazolin-6-yl}-prop-2-ynyl)-3-ethyl-urea] | – | – | –
2 | 21 to 50 nM | 116 | COCC(=O)NC/C=C/c1ccc2ncnc(Nc3ccc(Oc4ccc(C)nc4)c(C)c3)c2c1 [Example 9, E-2-Methoxy-N-(3-{4-[3-methyl-4-(6-methyl-pyridin-3-yloxy)-phenylamino]-quinazolin-6-yl}-allyl)-acetamide] | – | – | –
3 | 21 to 50 nM | 1133 | COC(=O)NC/C=C/c1ccc2ncnc(Nc3ccc(Oc4cccnc4)c(C)c3)c2c1 [Example 7, E-(3-{4-[3-Methyl-4-(pyridin-3-yloxy)-phenylamino]-quinazolin-6-yl}-allyl)-carbamic acid methyl ester] | – | – | –
4 | – | – | C#Cc1cccc(Nc2ncnc3cc(OCCOC)c(OCCOC)cc23)c1 [CP-358,774] | this adverse event was observed | – | –
5 | 21 to 50 nM | 216 | Cc1ccc(Oc2ccc(Nc3ncnc4ccc(C#CCNC(=O)c5cc(C)no5)cc34)cc2C)cn1 [Example 16, 3-Methyl-isoxazole-5-carboxylic acid (3-{4-[3-methyl-4-(6-methyl-pyridin-3-yloxy)-phenylamino]-quinazolin-6-yl}-prop-2-ynyl)-amide] | – | – | –
6 | < 20 nM | 182 | Cc1cc(Nc2ncnc3ccc(C#CCNC(=O)CN(C)C)cc23)ccc1Oc1cccnc1 [Example 13, 2-Dimethylamino-N-(3-{4-[3-methyl-4-(pyridin-3-yloxy)-phenylamino]-quinazolin-6-yl}-prop-2-ynyl)-acetamide] | – | – | –
7 | 21 to 50 nM | 122 | Cc1ccc(Oc2ccc(Nc3ncnc4ccc(/C=C/CNC(=O)C5CC5)cc34)cc2C)cn1 [Example 11, E-Cyclopropanecarboxylic acid (3-{4-[3-methyl-4-(6-methyl-pyridin-3-yloxy)-phenylamino]-quinazolin-6-yl}-allyl)-amide] | – | – | –
8 | < 20 nM | 437 | Cc1ccc(Oc2ccc(Nc3ncnc4ccc(/C=C/CNC(=O)c5cc(C)on5)cc34)cc2C)cn1 [Example 6, E-5-Methyl-isoxazole-3-carboxylic acid (3-{4-[3-methyl-4-(6-methyl-pyridin-3-yloxy)-phenylamino]-quinazolin-6-yl}-allyl)-amide] | – | – | –
9 | 51 to 100 nM | 140 | COC(=O)NCC#Cc1ccc2ncnc(Nc3ccc(Oc4cccnc4)c(C)c3)c2c1 [Example 15, (3-{4-[3-Methyl-4-(pyridin-3-yloxy)-phenylamino]-quinazolin-6-yl}-prop-2-ynyl)-carbamic acid methyl ester] | – | – | –
10 | 21 to 50 nM | 658 | Cc1cc(Nc2ncnc3ccc(/C=C/CNC(=O)C4CC4)cc23)ccc1Oc1cccnc1 [Example 2, E-Cyclopropanecarboxylic acid (3-{4-[3-methyl-4-(pyridin-3-yloxy)-phenylamino]-quinazolin-6-yl}-allyl)-amide] | – | – | –
11 | – | – | COc1cc2ncnc(Nc3ccc(F)c(Cl)c3)c2cc1OCCCN1CCOCC1 [ZD1839] | this adverse event was observed | – | –
12 | 21 to 50 nM | 142 | Cc1ccc(Oc2ccc(Nc3ncnc4ccc(/C=C/CNC(=O)C5CC5)cc34)cc2Cl)cn1 [Example 4, E-Cyclopropanecarboxylic acid (3-{4-[3-chloro-4-(6-methyl-pyridin-3-yloxy)-phenylamino]-quinazolin-6-yl}-allyl)-amide] | – | – | –
13 | – | – | CCOc1cc2ncc(C#N)c(Nc3ccc(F)c(Cl)c3)c2cc1NC(=O)/C=C/CN(C)C [EKB-569] | dermal toxicity in the form of a rash occurs | – | –
14 | – | – | O=CN/C=C/c1cc(O)ccc1O [erbstatin] | – | without effect on the growth | selectively attenuates the growth
15 | 51 to 100 nM | 308 | COC1CCN(C(=O)NC(C)(C)C#Cc2ccc3ncnc(Nc4ccc(Oc5ccc(C)nc5)c(C)c4)c3c2)C1 (centres unmarked) [Example 8, 3-Methoxy-pyrrolidine-1-carboxylic acid (1,1-dimethyl-3-{4-[3-methyl-4-(6-methyl-pyridin-3-yloxy)-phenylamino]-quinazolin-6-yl}-prop-2-ynyl)-amide] | – | – | –
16 | 21 to 50 nM | 108 | CC(=O)NC/C=C/c1ccc2ncnc(Nc3ccc(Oc4ccc(C)nc4)c(Cl)c3)c2c1 [Example 5, E-N-(3-{4-[3-Chloro-4-(6-methyl-pyridin-3-yloxy)-phenylamino]-quinazolin-6-yl}-allyl)-acetamide] | – | – | –
17 | 21 to 50 nM | 103 | COCC(=O)NCC#Cc1ccc2ncnc(Nc3ccc(Oc4cccc(OC)c4)c(C)c3)c2c1 [Example 3, 2-Methoxy-N-(3-{4-[4-(3-methoxy-phenoxy)-3-methyl-phenylamino]-quinazolin-6-yl}-prop-2-ynyl)-acetamide] | – | – | –
18 | < 20 nM | 101 | CC(=O)C(=O)NCC#Cc1ccc2ncnc(Nc3cnc(Oc4ccccc4)c(C)c3)c2c1 [Example 1, N-{3-[4-(5-Methyl-6-phenoxy-pyridin-3-ylamino)-quinazolin-6-yl]-prop-2-ynyl}-2-oxo-propionamide] | – | – | –
19 | 21 to 50 nM | 196 | Cc1cc(Nc2ncnc3ccc(C#CC4CCNCC4)cc23)ccc1Oc1cccnc1 [Example 14, [3-Methyl-4-(pyridin-3-yloxy)-phenyl]-(6-piperidin-4-ylethynyl-quinazolin-4-yl)-amine] | – | – | –
20 | 21 to 50 nM | 112 | CCNC(=O)NCC#Cc1ccc2ncnc(Nc3ccc(Oc4cccnc4)c(C)c3)c2c1 [Example 10, 1-Ethyl-3-(3-{4-[3-methyl-4-(pyridin-3-yloxy)-phenylamino]-quinazolin-6-yl}-prop-2-ynyl)-urea] | – | – | –
21 | – | – | C=CC(=O)Nc1cc2c(Nc3ccc(F)c(Cl)c3)ncnc2cc1OCCCN1CCOCC1 [CI-1033] | dermal toxicity in the form of a rash occurs | – | –
